Results as given in article PMC4245125, “Pharmacological and Behavioral Characterization of D-473, an Orally Active Triple Reuptake Inhibitor Targeting Dopamine, Serotonin and Norepinephrine Transporters” (PLoS ONE, 2014).

Legend:
D2 = target: T1, D2 (Homo sapiens, UniProt P14416); experiment: NIMH PDSP receptor binding, D2; settings: [3H]N-methylspiperone, read-out: % Inhibition of Binding at 10 µM D-473
T1 construct: purchased NIMH PDSP

5HT1d = target: T2, 5HT1d (Homo sapiens, UniProt P28221); experiment: NIMH PDSP receptor binding, 5HT1d; settings: [3H]GR-125743, read-out: % Inhibition of Binding at 10 µM D-473
T2 construct: purchased NIMH PDSP

M3 = target: T3, M3 (Homo sapiens, UniProt P20309); experiment: biochemical; settings: read-out: % Inhibition of Binding at 10 µM D-473
T3 construct: purchased NIMH PDSP

Alpha1D = target: T4, Alpha1D (Homo sapiens, UniProt P25100); experiment: NIMH PDSP receptor binding, Alpha1D; settings: [3H]Prazosin, read-out: % Inhibition of Binding at 10 µM D-473
T4 construct: purchased NIMH PDSP

[1] = Brain uptake after oral administration in rats; type: in vivo; settings: rat, 25 mg/kg PO
Procedure: Sample preparation: Following oral administration of 25 mg/kg of D-473 and D-142 in male Sprague Dawley rats, the blood samples were collected at different time points over a period of 8 h for analysis. Concentrations of D-473 and D-142 in plasma were quantitated using a set of calibration standards prepared in blank matrix that were processed in parallel. Plasma concentration evaluation was carried out by the CRO, Absorption System, PA. Additionally, brain uptake studies of D-473 were carried out at three different time points (2, 4 and 6 h) following oral administration of 25 mg/kg D-473. Concentrations of D-473 in rat brain were quantitated using a set of calibration standards which were prepared in blank brain homogenate matrix on the day of analysis. The standard samples (5, 10, 25, 100, 500, 1000, and 2000 ng/mL) for calibration curve were prepared by spiking 45 µL of blank rat plasma with 5 µL of appropriate working dilution of D-473 in acetonitrile. The bioanalytical sample preparation for brain and plasma analysis followed by quantification of test compounds entailed the addition of 250 µL acetonitrile to every 50 µL of standard and analyte samples to precipitate tissue plasma proteins and tissue macromolecules. These mixtures were then vortexed for 15 min at 1400 rpm. The suspensions were then clarified by centrifugation (18000 g, 10 min at 4°C), and each 150 µL of the resulting supernatant was mixed well with 50 µL 0.1% formic acid in 50/50 (v/v) ACN/water solution for about 10 sec. The mixtures were again centrifuged (18000 g, 10 min at 4°C) before 100 µL of clear supernatant were transferred to auto sampler vials for LC-MS/MS analysis.
The analysis of brain samples was performed using Waters (Milford, MA, USA) Acquity UPLC instrument with a triple quadrupole (TQD) MS analyzer. The LC-MS/MS detection was performed using a positive Multiple Reaction Monitoring (MRM) method by monitoring the ion transition of D-473 from m/z 440.39 → 121.03. The MS/MS conditions include capillary voltage, 2.92 kV, cone voltage, 26.0 V; source temperature, 150°C; desolvation temperature, 350°C; desolvation gas flow, 500 L/hr; and collision energy, 33 eV. The MS control and data acquisition were collected using the Waters MassLynx software v4.1. Chromatographic conditions were achieved using a reverse phase C-18 ethylene bridged hybrid column (BEH C18) (2.1×100 mm, 1.7 µM). 5 µL of sample solutions were injected and samples were eluted using 0.1% formic acid in water (solvent A) and 0.1% formic acid in ACN (solvent B) mixture with a flow rate of 0.2 mL/min. Gradient elution of the mobile phase was 90% A to 5% A from 0 to 1 min, 5% A, 95% B from 1 to 3 min, and 5% A to 90% A from 3 to 5 min.

Alpha1B = target: T5, Alpha1B (Homo sapiens, UniProt P35368); experiment: NIMH PDSP receptor binding, Alpha1B; settings: [3H]Prazosin, read-out: % Inhibition of Binding at 10 µM D-473
T5 construct: purchased NIMH PDSP

D1 = D1 (Homo sapiens, UniProt P21728); experiment: NIMH PDSP receptor binding, D1
Beta1 = target: T6, Beta1 (Homo sapiens, UniProt P08588); experiment: NIMH PDSP receptor binding, Beta1; settings: [125I]Iodopindolol, read-out: % Inhibition of Binding at 10 µM D-473
T6 construct: purchased NIMH PDSP

5HT2a = target: T7, 5HT2a (Homo sapiens, UniProt P28223); experiment: NIMH PDSP receptor binding, 5HT2a; settings: [3H]ketanserin, read-out: % Inhibition of Binding at 10 µM D-473
T7 construct: purchased NIMH PDSP
T7 sequence (P28223 whole entry): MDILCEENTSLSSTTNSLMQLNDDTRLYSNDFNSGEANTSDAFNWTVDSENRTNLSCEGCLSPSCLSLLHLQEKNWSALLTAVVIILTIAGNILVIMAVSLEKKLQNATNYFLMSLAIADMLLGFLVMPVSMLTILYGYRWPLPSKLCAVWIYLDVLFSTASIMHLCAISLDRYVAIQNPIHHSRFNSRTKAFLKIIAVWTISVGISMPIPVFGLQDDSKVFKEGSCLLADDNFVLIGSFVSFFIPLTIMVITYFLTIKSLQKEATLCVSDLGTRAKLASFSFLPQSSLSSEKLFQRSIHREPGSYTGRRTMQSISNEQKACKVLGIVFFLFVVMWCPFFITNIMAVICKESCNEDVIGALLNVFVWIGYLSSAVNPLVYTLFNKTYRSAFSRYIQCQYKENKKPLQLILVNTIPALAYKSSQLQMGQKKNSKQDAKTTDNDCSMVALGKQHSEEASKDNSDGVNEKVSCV

Chain of D1 (P21728 whole entry): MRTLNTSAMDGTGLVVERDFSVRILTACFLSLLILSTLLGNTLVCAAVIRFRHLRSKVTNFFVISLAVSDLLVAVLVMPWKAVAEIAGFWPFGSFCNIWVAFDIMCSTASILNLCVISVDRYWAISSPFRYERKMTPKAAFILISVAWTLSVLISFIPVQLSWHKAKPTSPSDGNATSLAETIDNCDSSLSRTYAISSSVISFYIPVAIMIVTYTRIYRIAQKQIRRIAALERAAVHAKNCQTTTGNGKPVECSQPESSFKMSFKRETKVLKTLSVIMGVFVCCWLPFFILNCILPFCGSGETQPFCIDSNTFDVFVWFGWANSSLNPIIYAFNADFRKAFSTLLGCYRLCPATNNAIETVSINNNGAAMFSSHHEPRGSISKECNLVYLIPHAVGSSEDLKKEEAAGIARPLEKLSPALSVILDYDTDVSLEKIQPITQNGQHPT
T2 sequence (P28221 whole entry): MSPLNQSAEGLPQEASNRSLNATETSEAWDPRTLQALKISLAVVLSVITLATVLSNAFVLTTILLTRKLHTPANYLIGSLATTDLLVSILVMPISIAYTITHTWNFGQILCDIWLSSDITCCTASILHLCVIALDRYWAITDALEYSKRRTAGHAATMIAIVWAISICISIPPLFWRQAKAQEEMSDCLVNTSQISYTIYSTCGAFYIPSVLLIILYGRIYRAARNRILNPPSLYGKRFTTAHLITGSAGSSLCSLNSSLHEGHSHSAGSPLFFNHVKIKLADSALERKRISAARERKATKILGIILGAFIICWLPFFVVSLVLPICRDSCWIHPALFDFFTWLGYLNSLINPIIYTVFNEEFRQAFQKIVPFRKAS
T5 sequence (P35368 whole entry): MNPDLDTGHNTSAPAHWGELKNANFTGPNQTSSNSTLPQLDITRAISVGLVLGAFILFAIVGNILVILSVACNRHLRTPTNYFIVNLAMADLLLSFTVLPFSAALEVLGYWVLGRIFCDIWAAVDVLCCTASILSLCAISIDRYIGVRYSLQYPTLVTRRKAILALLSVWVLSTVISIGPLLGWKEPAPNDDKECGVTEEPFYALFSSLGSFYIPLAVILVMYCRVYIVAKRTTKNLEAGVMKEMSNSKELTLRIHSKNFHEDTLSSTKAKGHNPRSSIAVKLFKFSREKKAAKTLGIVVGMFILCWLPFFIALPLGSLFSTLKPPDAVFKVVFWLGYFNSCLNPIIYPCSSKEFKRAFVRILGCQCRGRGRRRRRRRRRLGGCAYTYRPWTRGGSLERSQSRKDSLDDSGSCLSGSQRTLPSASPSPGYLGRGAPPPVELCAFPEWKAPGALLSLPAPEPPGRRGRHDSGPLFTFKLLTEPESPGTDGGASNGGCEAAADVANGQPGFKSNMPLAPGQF
T3 sequence (P20309 whole entry): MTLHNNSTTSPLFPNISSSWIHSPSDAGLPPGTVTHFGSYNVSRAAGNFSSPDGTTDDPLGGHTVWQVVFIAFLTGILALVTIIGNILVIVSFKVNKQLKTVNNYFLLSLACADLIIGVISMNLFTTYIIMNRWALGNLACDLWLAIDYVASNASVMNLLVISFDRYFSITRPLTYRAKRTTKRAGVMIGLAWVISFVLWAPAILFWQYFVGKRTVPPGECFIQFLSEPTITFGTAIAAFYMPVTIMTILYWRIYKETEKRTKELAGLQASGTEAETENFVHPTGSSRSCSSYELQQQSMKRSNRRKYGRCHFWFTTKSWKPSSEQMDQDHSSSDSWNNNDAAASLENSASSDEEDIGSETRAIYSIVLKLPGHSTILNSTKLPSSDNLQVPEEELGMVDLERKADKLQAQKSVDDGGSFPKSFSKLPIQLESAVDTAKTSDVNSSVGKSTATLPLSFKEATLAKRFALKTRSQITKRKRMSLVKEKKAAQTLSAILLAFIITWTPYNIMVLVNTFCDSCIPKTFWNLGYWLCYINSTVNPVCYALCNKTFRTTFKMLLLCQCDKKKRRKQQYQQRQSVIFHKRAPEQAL
T6 sequence (P08588 whole entry): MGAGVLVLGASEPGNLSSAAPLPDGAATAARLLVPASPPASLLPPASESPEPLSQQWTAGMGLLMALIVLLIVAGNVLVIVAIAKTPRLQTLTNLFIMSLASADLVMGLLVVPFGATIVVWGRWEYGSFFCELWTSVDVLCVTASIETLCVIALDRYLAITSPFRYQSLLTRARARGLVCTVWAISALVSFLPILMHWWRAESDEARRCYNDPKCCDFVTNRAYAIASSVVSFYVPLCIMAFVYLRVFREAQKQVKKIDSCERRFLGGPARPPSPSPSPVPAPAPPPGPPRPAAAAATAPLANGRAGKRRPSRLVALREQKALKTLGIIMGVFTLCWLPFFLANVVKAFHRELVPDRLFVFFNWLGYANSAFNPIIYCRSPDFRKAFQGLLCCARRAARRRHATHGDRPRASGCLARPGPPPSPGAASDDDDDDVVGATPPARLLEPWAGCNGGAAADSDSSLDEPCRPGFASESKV
T4 sequence (P25100 whole entry): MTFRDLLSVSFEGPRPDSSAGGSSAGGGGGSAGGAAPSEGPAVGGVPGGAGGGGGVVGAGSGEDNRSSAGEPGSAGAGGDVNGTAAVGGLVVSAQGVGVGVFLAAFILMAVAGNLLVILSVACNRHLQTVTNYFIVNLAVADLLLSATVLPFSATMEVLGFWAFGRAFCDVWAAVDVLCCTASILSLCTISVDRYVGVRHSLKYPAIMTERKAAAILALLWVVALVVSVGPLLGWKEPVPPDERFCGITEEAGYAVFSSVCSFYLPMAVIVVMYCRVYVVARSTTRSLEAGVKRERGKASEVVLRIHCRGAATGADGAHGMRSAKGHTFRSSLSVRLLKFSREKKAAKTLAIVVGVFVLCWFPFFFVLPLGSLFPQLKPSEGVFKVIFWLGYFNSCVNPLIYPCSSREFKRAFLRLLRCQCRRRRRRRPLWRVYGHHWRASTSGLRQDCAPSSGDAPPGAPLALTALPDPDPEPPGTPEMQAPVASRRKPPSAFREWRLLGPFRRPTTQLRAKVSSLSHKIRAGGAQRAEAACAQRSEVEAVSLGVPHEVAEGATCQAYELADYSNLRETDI
T1 sequence (P14416 whole entry): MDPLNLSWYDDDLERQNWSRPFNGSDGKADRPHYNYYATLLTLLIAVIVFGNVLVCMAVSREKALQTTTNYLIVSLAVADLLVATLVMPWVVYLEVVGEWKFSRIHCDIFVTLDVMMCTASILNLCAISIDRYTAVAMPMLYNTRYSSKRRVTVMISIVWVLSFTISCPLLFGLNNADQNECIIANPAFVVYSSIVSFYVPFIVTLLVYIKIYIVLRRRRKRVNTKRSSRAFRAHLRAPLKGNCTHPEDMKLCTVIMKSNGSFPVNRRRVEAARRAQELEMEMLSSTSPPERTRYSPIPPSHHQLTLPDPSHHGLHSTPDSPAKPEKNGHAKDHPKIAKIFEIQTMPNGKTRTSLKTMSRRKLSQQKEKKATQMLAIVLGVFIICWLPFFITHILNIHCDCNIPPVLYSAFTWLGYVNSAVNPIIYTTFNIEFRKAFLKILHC

## COc1ccc(CN[C@@H]2CO[C@H](C(c3ccc(F)cc3)c3ccc(F)cc3)C[C@H]2O)cc1 [Compound D-473, (2S,4R,5R)-2-(bis(4-fluorophenyl)methyl)-5-((4-methoxybenzyl)amino)tetrahydro-2H-pyran-4-ol]
D2
  inhibition at 10 µM: 42.9%
5HT1d
  inhibition at 10 µM: 39%
M3
  inhibition at 10 µM: 6.9%
Alpha1D
  inhibition at 10 µM: 41.8%
[1]; male, Sprague-Dawley, brain and plasma, 2 h, read-out: Brain/plasma ratio
  Kp at 2 h: 0.76
[1]; male, Sprague-Dawley, brain and plasma, 4 h, read-out: Brain/plasma ratio
  Kp at 4 h: 1.54
[1]; male, Sprague-Dawley, brain and plasma, 6 h, read-out: Brain/plasma ratio
  Kp at 6 h: 1.22
[1]; male, Sprague-Dawley, brain, 2 h
  concentration at 2 h: 264 ng/mL
[1]; male, Sprague-Dawley, brain, 4 h, read-out: Concentration in the brain (peak)
  concentration at 4 h: 345 ng/mL
[1]; 6 h
  Concentration in the brain: slightly lower than observed at 2 h
Alpha1B
  inhibition at 10 µM: 16.6%
D1; [3H]SCH 23390, 10 µM, read-out: % Inhibition of Binding at 10 µM D-473
  inhibition at 10 µM: 62.2%
D1; [3H]SCH 23390, secondary assay, read-out: Ki for D-473
  Ki: 630 nM
Beta1
  inhibition at 10 µM: 24.6%
5HT2a
  inhibition at 10 µM: 16.3%
